Test results as given in patent publication US6506785B2, “Treating or preventing the early stages of degeneration of articular cartilage or subchondral bone in mammals using carprofen and derivatives” (Pfizer, Inc., priority 1998, dated 2003).

What was measured:
[1] = Clearance rates of carprofen-genus enantiomers; settings: in vivo
Source text: The above-recited ranges of dosage amounts, which are also recited elsewhere herein, are for racemic mixtures of compounds of Formula (I) having a chiral carbon, or for single compounds of Formula (I) where no chiral carbon atom is present. As will be appreciated by the person of ordinary skill in this art, i.e., a practicing veterinarian or a person with an advanced degree and experience in animal health issues, where other than a racemic mixture of compounds of Formula (I) is involved, the chondroprotective therapeutically effective amount will vary. For example, if 85% of the mixture is (S)-enantiomer, that will ordinarily tend to reduce the necessary dosage. […] However, the degree of difference between the activities of the two enantiomers must also take into account other differences, especially differences in pharmacokinetics between the two enantiomers, in determining the proper dosage. […] This, in turn, will have a calculable impact on the amount of active compound to be administered. Ordinarily, such determinations will be made on a case-by-case basis by the artisan, but these are well within the ordinary skill of the art, as is instituting the methods whereby data necessary for the supporting calculations may be obtained.

[2] = in vivo, po
Description: Accordingly, a useful controlled release dosage form of carprofen in accordance with the present invention is one which maintains a carprofen plasma level greater than 2 μg/mL for most of the day after a single oral dose at 2 mg/lb.
Immediate release carprofen dosage forms containing doses of 1.8, 1.6, and 1.4 mg/lb maintain a plasma carprofen concentration above 10 μg/mL for 9.5 hrs, 8.5 hrs, and 7.5 hrs, respectively. Preferred 1.8 mg/lb oral controlled release carprofen dosage forms maintain a plasma carprofen concentration above 10 μg/mL for greater than 9.5 hrs. Likewise, the threshold durations for 1.6 mg/lb and 1.4 mg/lb doses are 8.5 hrs and 7.5 hrs, respectively. The performance characteristics for preferred oral controlled release carprofen dosage forms at doses higher than 2 mg/lb or less than 1.4 mg/lb can be similarly calculated, assuming linear pharmacokinetics. More preferred oral controlled release carprofen dosage forms are those which maintain a plasma carprofen concentration greater than 10 μg/mL for a period of time greater than or equal to that observed when an immediate release carprofen dosage form is dosed at any higher dose. […]

[3] = test system: cultured osteoarthritic mammal chondrocytes / cartilage explants; settings: cited from earlier work
articular cartilage = settings: cited from earlier work
[4] = test system: atrophied mammal articular cartilage; settings: in vivo; cited from earlier work
[5] = test system: cartilage homeostasis in osteoarthritic joints; settings: compared with control joints; cited from earlier work

C[C@H](C(=O)O)c1ccc2c(c1)[nH]c1ccc(Cl)cc12 (single isomer, unassigned) [(+)(S) enantiomer]
clearance rates, (+)(S) versus (−)(R) enantiomer [1]: significant difference in clearance rates

C[C@@H](C(=O)O)c1ccc2c(c1)[nH]c1ccc(Cl)cc12 (single isomer, unassigned) [(−)(R) enantiomer]
clearance rates, (+)(S) versus (−)(R) enantiomer [1]: significant difference in clearance rates

CC(C(=O)O)c1ccc2c(c1)[nH]c1ccc(Cl)cc12 (stereo not drawn) [carprofen, 6-chloro-α-methyl-9H-carbazole-2-acetic acid]
time plasma carprofen levels are maintained above approximately 10 μg/mL [2]: 10.5 h
cartilage GAG synthesis ([3]; carprofen concentrations of 1 and 10): selectively stimulating new cartilage GAG synthesis
cartilage proteoglycan breakdown ([3]; carprofen concentrations of 1 and 10 μL/ml): without any direct effect on cartilage proteoglycan breakdown

Pentosan polysulfate [PPS]
articular cartilage damage (articular cartilage; gross and histologic evaluation): significantly decrease articular cartilage damage
articular cartilage proteoglycan content (articular cartilage; in vivo): maintenance of normal articular cartilage proteoglycan content

hyaluronic acid [HA]
effect on atrophied articular cartilage [4]: chondrostabilizing effect

polysulfated glycosaminoglycan [PSGAG]
microscopic structural alteration [5]: decreased microscopic structural alteration
proteinase activity [5]: decreased proteinase activity
proteoglycan in cartilage [5]: retention of proteoglycan in cartilage
